Results taken from US11279681B2, “3-alkyl bicyclic [4,5,0] hydroxamic acids as HDAC inhibitors” (Valo Health, Inc., priority 2015, dated 2022).

These compounds were tested against T1, HDAC6 (Homo sapiens, UniProt Q9UBN7) (assay: In vitro histone deacetylase assay: enzymatic HDAC6 electrophoretic mobility shift assay). Details: full length human recombinant HDAC6, 1 nM enzyme, 2 μM peptide substrate RHKK(Ac)-NH2, 25° C.; read-out: Inhibitory Concentration (IC50) Values for Representative Compounds against HDAC6, Activity Range.
T1 sequence (Q9UBN7 1-1215): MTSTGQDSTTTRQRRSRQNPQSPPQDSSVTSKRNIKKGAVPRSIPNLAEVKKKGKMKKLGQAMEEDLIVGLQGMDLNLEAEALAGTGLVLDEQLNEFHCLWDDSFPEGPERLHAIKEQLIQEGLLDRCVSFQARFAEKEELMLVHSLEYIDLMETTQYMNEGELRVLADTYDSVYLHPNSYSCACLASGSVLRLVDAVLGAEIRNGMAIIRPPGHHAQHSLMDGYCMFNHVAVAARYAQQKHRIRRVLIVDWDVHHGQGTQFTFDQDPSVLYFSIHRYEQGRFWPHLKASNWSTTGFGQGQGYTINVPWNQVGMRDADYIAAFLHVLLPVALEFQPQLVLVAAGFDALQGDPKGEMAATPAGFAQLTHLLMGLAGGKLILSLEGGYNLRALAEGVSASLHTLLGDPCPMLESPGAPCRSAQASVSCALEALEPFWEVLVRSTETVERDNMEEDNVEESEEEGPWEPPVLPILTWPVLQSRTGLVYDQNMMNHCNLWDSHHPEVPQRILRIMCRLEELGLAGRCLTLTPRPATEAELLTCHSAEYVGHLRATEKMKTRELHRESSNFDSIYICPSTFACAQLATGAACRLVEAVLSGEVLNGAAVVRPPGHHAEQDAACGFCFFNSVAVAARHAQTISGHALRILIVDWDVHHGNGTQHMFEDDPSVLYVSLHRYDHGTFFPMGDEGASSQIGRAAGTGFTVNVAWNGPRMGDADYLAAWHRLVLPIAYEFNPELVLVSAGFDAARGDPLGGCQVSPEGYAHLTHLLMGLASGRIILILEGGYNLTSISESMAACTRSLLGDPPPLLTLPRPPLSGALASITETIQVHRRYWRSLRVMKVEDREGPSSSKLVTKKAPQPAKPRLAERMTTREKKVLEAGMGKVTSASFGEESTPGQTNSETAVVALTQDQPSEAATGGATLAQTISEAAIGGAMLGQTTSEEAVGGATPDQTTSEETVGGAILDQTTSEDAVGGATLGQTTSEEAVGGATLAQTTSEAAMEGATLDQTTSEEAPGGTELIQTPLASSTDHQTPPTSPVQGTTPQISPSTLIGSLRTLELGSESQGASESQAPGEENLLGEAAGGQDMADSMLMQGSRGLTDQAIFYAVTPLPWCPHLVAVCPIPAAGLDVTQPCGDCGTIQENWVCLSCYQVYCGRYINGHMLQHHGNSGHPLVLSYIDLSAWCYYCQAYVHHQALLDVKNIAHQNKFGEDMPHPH
Type: biochemical
Procedure: The enzymatic HDAC6 assay was performed using electrophoretic mobility shift assay. […] The enzymatic reactions were assembled in 384 well plates in a total volume of 25 μL in a reaction buffer composing: 100 mM HEPES, pH7.5, 25 mM KCl, 0.1% bovine serum albumin, 0.01% Triton X-100, 1% DMSO (from compounds) 2 μM of the fluorescently labeled peptide substrate and enzyme. The enzyme was added at a final concentration of 1 nM. The peptide substrate RHKK(Ac)-NH2 was used. The compounds were tested at 12 concentrations spaced by 3× dilution intervals. Negative control samples (0%-inhibition in the absence of inhibitor) and positive control samples (100%-inhibition) were assembled in replicates of four in each assay plate. The reactions were incubated at 25° C. and quenched by the addition of 45 μL of termination buffer (100 mM HEPES, pH 7.5, 0.01% Triton X-100, 0.05% SDS).
The terminated assay plates were analyzed on LabChip® 3000 microfluidic electrophoresis instrument (Perkin Elmer/Caliper Life Sciences). The fluorescence intensity of the electrophoretically separated de-acetylated product and substrate peptide was measured. Activity in each sample was determined as the product to sum ratio (PSR): P/(S+P), where P is the peak height of the product peptide and S is the peak height of the substrate peptide. Percent inhibition (Pinh) is determined using the following equation:
Pinh=(PSR0%−PSRinh)/(PSR0%−PSR100%)*100, where PSRinh is the product sum ratio in the presence of inhibitor, PSR0% is the average product sum ration in the absence of inhibitor and PSR100% is the average product sum ratio in 100%-inhibition control samples. The IC50 values of inhibitors were determined by fitting the %-inhibition curves with 4 parameter dose-response model using XLfit 4 software.
`COC[C@@H]1COc2cc(C(=O)NO)ccc2CN1c1ccccc1` [(R)-N-hydroxy-3-(methoxymethyl)-4-phenyl-2,3,4,5-tetrahydrobenzo[f][1,4]oxazepine-8-carboxamide] gave an IC50 of 100 to 500 nM.
In the case of `COC[C@@H]1COc2cc(C(=O)NO)ccc2CN1Cc1ccc(OC)cc1` [(R)-N-hydroxy-4-(4-methoxybenzyl)-3-(methoxymethyl)-2,3,4,5-tetrahydrobenzo[f][1,4]oxazepine-8-carboxamide], the IC50 is reported as ≤ 100 nM.
`COc1ccc(CN2CCOc3cc(C(=O)NO)ccc3[C@H]2C)cc1` [(R)-N-hydroxy-4-(4-methoxybenzyl)-5-methyl-2,3,4,5-tetrahydrobenzo[f][1,4]oxazepine-8-carboxamide] was tested, and the IC50 was > 500 nM.
For `C[C@@H]1CN(C)Cc2ccc(C(=O)NO)cc2O1` [(R)—N-hydroxy-2,4-dimethyl-2,3,4,5-tetrahydrobenzo[f][1,4]oxazepine-8-carboxamide], the IC50 was > 500 nM.
In the case of `C[C@@H]1CNCc2ccc(C(=O)NO)cc2O1` [(R)—N-hydroxy-2-methyl-2,3,4,5-tetrahydrobenzo[f][1,4]oxazepine-8-carboxamide], the IC50 is reported as > 500 nM.
In the case of `C[C@@H]1COc2cc(C(=O)NO)ccc2CN1C` [(R)—N-hydroxy-3,4-dimethyl-2,3,4,5-tetrahydrobenzo[f][1,4]oxazepine-8-carboxamide], the IC50 is reported as ≤ 100 nM.
Compound `C[C@@H]1COc2cc(C(=O)NO)ccc2CN1` [(R)—N-hydroxy-3-methyl-2,3,4,5-tetrahydrobenzo[f][1,4]oxazepine-8-carboxamide] has an IC50 of 100 to 500 nM.
In the case of `O=C(NO)c1ccc2c(c1)OC[C@H](Cc1ccccc1)N(C(=O)N1CCOCC1)C2` [(S)-3-benzyl-N-hydroxy-4-(morpholine-4-carbonyl)-2,3,4,5-tetrahydrobenzo[f][1,4]oxazepine-8-carboxamide], the IC50 is reported as ≤ 100 nM.
`CC[C@H]1COc2cc(C(=O)NO)ccc2CN1Cc1ccc(OC)cc1` [(S)-3-ethyl-N-hydroxy-4-(4-methoxybenzyl)-2,3,4,5-tetrahydrobenzo[f][1,4]oxazepine-8-carboxamide] was tested, and the IC50 was ≤ 100 nM.
For `CC[C@H]1COc2cc(C(=O)NO)ccc2CN1c1ccccc1C` [(S)-3-ethyl-N-hydroxy-4-(o-tolyl)-2,3,4,5-tetrahydrobenzo[f][1,4]oxazepine-8-carboxamide], the IC50 was ≤ 100 nM.
With `CC[C@H]1COc2cc(C(=O)NO)ccc2CN1C` [(S)-3-ethyl-N-hydroxy-4-methyl-2,3,4,5-tetrahydrobenzo[f][1,4]oxazepine-8-carboxamide] the IC50 was ≤ 100 nM.
With `CC[C@H]1COc2cc(C(=O)NO)ccc2CN1c1ccccc1` [(S)-3-ethyl-N-hydroxy-4-phenyl-2,3,4,5-tetrahydrobenzo[f][1,4]oxazepine-8-carboxamide] the IC50 was ≤ 100 nM.
`C[C@H]1COc2cc(C(=O)NO)ccc2CN1c1ccccc1Cl` [(S)-4-(2-chlorophenyl)-N-hydroxy-3-methyl-2,3,4,5-tetrahydrobenzo[f][1,4]oxazepine-8-carboxamide] was tested, and the IC50 was ≤ 100 nM.
`C[C@H]1COc2cc(C(=O)NO)ccc2CN1c1ccccc1F` [(S)-4-(2-fluorophenyl)-N-hydroxy-3-methyl-2,3,4,5-tetrahydrobenzo[f][1,4]oxazepine-8-carboxamide] was tested, and the IC50 was ≤ 100 nM.
In the case of `C[C@H]1COc2cc(C(=O)NO)ccc2CN1C(=O)N1CCOc2ccccc21` [(S)-4-(3,4-dihydro-2H-benzo[b][1,4]oxazine-4-carbonyl)-N-hydroxy-3-methyl-2,3,4,5-tetrahydrobenzo[f][1,4]oxazepine-8-carboxamide], the IC50 is reported as ≤ 100 nM.
For `C[C@H]1COc2cc(C(=O)NO)ccc2CN1c1cccc(F)c1` [(S)-4-(3-fluorophenyl)-N-hydroxy-3-methyl-2,3,4,5-tetrahydrobenzo[f][1,4]oxazepine-8-carboxamide], the IC50 was ≤ 100 nM.
In the case of `C[C@H]1COc2cc(C(=O)NO)ccc2CN1c1ccc(Cl)cc1` [(S)-4-(4-chlorophenyl)-N-hydroxy-3-methyl-2,3,4,5-tetrahydrobenzo[f][1,4]oxazepine-8-carboxamide], the IC50 is reported as ≤ 100 nM.
With `C[C@H]1COc2cc(C(=O)NO)ccc2CN1Cc1ccc(F)cc1` [(S)-4-(4-fluorobenzyl)-N-hydroxy-3-methyl-2,3,4,5-tetrahydrobenzo[f][1,4]oxazepine-8-carboxamide] the IC50 was ≤ 100 nM.
`C[C@H]1COc2cc(C(=O)NO)ccc2CN1c1ccc(F)cc1` [(S)-4-(4-fluorophenyl)-N-hydroxy-3-methyl-2,3,4,5-tetrahydrobenzo[f][1,4]oxazepine-8-carboxamide] was tested, and the IC50 was ≤ 100 nM.
`C[C@H]1COc2cc(C(=O)NO)ccc2CN1C(=O)N1C[C@H]2CC[C@H](C1)O2` [(S)-4-((1R,5R)-8-oxa-3-azabicyclo[3.2.1]octane-3-carbonyl)-N-hydroxy-3-methyl-2,3,4,5-tetrahydrobenzo[f][1,4]oxazepine-8-carboxamide] was tested, and the IC50 was ≤ 100 nM.
With `C[C@H]1COc2cc(C(=O)NO)ccc2CN1C(=O)N1C[C@@H]2CC[C@@H](C1)O2` [(S)-4-((1S,5S)-8-oxa-3-azabicyclo[3.2.1]octane-3-carbonyl)-N-hydroxy-3-methyl-2,3,4,5-tetrahydrobenzo[f][1,4]oxazepine-8-carboxamide] the IC50 was ≤ 100 nM.
In the case of `C[C@H]1COc2cc(C(=O)NO)ccc2CN1S(=O)(=O)c1ccc(F)cc1` [(S)-4-((4-fluorophenyl)sulfonyl)-N-hydroxy-3-methyl-2,3,4,5-tetrahydrobenzo[f][1,4]oxazepine-8-carboxamide], the IC50 is reported as 100 to 500 nM.
With `C[C@H]1COc2cc(C(=O)NO)ccc2CN1C(=O)N1CCC1` [(S)-4-(azetidine-1-carbonyl)-N-hydroxy-3-methyl-2,3,4,5-tetrahydrobenzo[f][1,4]oxazepine-8-carboxamide] the IC50 was ≤ 100 nM.
With `C[C@H]1COc2cc(C(=O)NO)ccc2CN1CC1CCC1` [(S)-4-(cyclobutylmethyl)-N-hydroxy-3-methyl-2,3,4,5-tetrahydrobenzo[f][1,4]oxazepine-8-carboxamide] the IC50 was ≤ 100 nM.
For `C[C@H]1COc2cc(C(=O)NO)ccc2CN1CC1CCCCC1` [(S)-4-(cyclohexylmethyl)-N-hydroxy-3-methyl-2,3,4,5-tetrahydrobenzo[f][1,4]oxazepine-8-carboxamide], the IC50 was ≤ 100 nM.
For `C[C@H]1COc2cc(C(=O)NO)ccc2CN1CC1CCCC1` [(S)-4-(cyclopentylmethyl)-N-hydroxy-3-methyl-2,3,4,5-tetrahydrobenzo[f][1,4]oxazepine-8-carboxamide], the IC50 was ≤ 100 nM.
In the case of `C[C@H]1COc2cc(C(=O)NO)ccc2CN1CC1CC1` [(S)-4-(cyclopropylmethyl)-N-hydroxy-3-methyl-2,3,4,5-tetrahydrobenzo[f][1,4]oxazepine-8-carboxamide], the IC50 is reported as ≤ 100 nM.
`CCS(=O)(=O)N1Cc2ccc(C(=O)NO)cc2OC[C@@H]1C` [(S)-4-(ethylsulfonyl)-N-hydroxy-3-methyl-2,3,4,5-tetrahydrobenzo[f][1,4]oxazepine-8-carboxamide] was tested, and the IC50 was ≤ 100 nM.
`C[C@H]1COc2cc(C(=O)NO)ccc2CN1C1CCCC1` [(S)-4-cyclopentyl-N-hydroxy-3-methyl-2,3,4,5-tetrahydrobenzo[f][1,4]oxazepine-8-carboxamide] was tested, and the IC50 was 100 to 500 nM.
`CCN1Cc2ccc(C(=O)NO)cc2OC[C@@H]1C` [(S)-4-ethyl-N-hydroxy-3-methyl-2,3,4,5-tetrahydrobenzo[f][1,4]oxazepine-8-carboxamide] showed an IC50 of 100 to 500 nM.
